Laboratory results reported in PubChem BioAssay (NCI).
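The compound was tested at five concentrations on cells cultured in 96-well plates, with a 48-hour exposure period. GI50 = concentration required for 50% inhibition of growth. The concentration for full growth arrest is given as TGI.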

How the values were obtained:
Experiment in all cases: growth of human tumour cells (NCI), 48 h
RXF 393 renal = tested on: RXF 393 renal
COLO 205 colon = tested on: COLO 205 colon
PC-3 prostate = tested on: PC-3 prostate
HCT-116 colon = tested on: HCT-116 colon
MDA-N = tested on: MDA-N
M14 melanoma = tested on: M14 melanoma
SK-MEL-28 melanoma = tested on: SK-MEL-28 melanoma
SNB-75 CNS = tested on: SNB-75 CNS
SR leukemia = tested on: SR leukemia
EKVX NSCLC = tested on: EKVX NSCLC

SMILES	TGI (RXF 393 renal) [µM]	TGI (COLO 205 colon) [µM]	TGI (PC-3 prostate) [µM]	TGI (HCT-116 colon) [µM]	TGI (MDA-N) [µM]	TGI (M14 melanoma) [µM]	TGI (SK-MEL-28 melanoma) [µM]	TGI (SNB-75 CNS) [µM]	TGI (SR leukemia) [µM]	TGI (EKVX NSCLC) [µM]	GI50 (PC-3 prostate) [µM]	GI50 (HCT-116 colon) [µM]	GI50 (M14 melanoma) [µM]	GI50 (SK-MEL-28 melanoma) [µM]	GI50 (SR leukemia) [µM]	GI50 (EKVX NSCLC) [µM]	GI50 (COLO 205 colon) [µM]	GI50 (SNB-75 CNS) [µM]	GI50 (RXF 393 renal) [µM]
Cc1ccc(S(=O)(=O)NC(=O)Nc2ccc(C(=O)O)cc2)cc1	> 100	> 100	> 100	> 100	> 100	> 100	> 100	> 100											
COC(=O)[C@H](C)NC(=O)[C@H](NS(=O)(=O)c1nc2ccccc2s1)c1ccccc1	34.8	25.9	> 100	> 100		22.9	31.9	39.4	> 100	> 100									
COc1cc(C2c3cc4c(cc3[C@@H](Nc3ccc(F)cc3)C3COC[C@H]23)OCO4)cc(OC)c1O (stereo not given in full)		> 25	> 25	7.9	> 25	> 25	> 25	17	5.5	> 25									
CC1(C)N=C(/C(Cl)=[N+](/[O-])C(=O)c2ccc(Cl)cc2)C(C)(C)N1O	38	34.2	37.5	32.5	32.4	32.1	37.3		> 100	> 100									
Cc1cc(-c2ccc(N=Nc3ccc4c(S(=O)(=O)O)cc(S(=O)(=O)O)c(N)c4c3O)c(C)c2)ccc1N=Nc1ccc2c(S(=O)(=O)O)cc(S(=O)(=O)O)c(N)c2c1O	> 100	> 100		> 100			> 100	> 100		> 100									
O=C1/C(=C\c2cccc(Oc3ccccc3)c2)SC(c2ccccc2)N1c1cc(Cl)ccc1Cl (stereo not given)	76.5	> 100	> 100	52.7	45.5	84.4	> 100	> 100		> 100									
CC(C)C(NCc1c2ccccc2[n+](C)c2ccccc12)C(=O)O (stereo not given)	12.5	10.6		13.6		16	26.8	18		24.2									
[N-]=[N+]=CC(=O)C1CCN(c2ccccc2)C1=O (stereo not given)	> 10	> 10	> 10	> 10	> 10	> 10	> 10		> 10	> 10									
O=c1c2[nH]cnc2n(-c2ccccc2)c(=S)n1-c1ccccc1	> 100	> 100	> 100	> 100		> 100	> 100	> 100	> 100	> 100									
COc1cc2c(cc1OC)C1=C(C=O)c3ccc(OC)c(OC)c3C(O)N1CC2 (stereo not given)		64.1	54	> 100	> 100	78.1	> 100	38.6		> 100									
COc1cc2c(cc1O)NC(=O)[C@@H]1C[C@@H](O)CN1C2=O	> 100	> 100	> 100	> 100		> 100	> 100	> 100	> 100	> 100									
O=S(Nc1ccccc1)c1ccc(Cl)cc1 (stereo not given)		> 100		> 100	> 100	> 100	> 100		> 100	> 100									
CC(=O)CCC1(C(=O)OCC(C)C)CCCC1=O (stereo not given)	> 100	> 100	> 100	> 100	> 100	> 100	> 100	> 100		> 100									
CC(C)(NO)/C(=N\O)c1ccccc1	> 10	> 10	> 10	> 10	> 10	> 10			> 10	> 10									
CC1CC(c2ccccc2)=Nc2ccccc2S1 (stereo not given)	> 100	> 100		> 100		> 100	> 100	> 100	> 100	> 100									
C=CCOC(C)(C)C1=CCC(C)CC1 (stereo not given)	> 100	> 100	> 100	> 100	> 100	> 100	> 100	> 100		> 100									
Clc1[nH]nc2ccccc12	> 100	> 100	> 100	> 100	> 100	> 100	> 100	> 100		> 100									
Cc1ccc(S(=O)(=O)N/N=c2/sc3ccccc3n2C)cc1	> 100	> 100	> 100	> 100			> 100	> 100	> 100	> 100									

SMILES	TGI (RXF 393 renal) [µM]	TGI (COLO 205 colon) [µM]	TGI (PC-3 prostate) [µM]	TGI (HCT-116 colon) [µM]	TGI (MDA-N) [µM]	TGI (M14 melanoma) [µM]	TGI (SK-MEL-28 melanoma) [µM]	TGI (SNB-75 CNS) [µM]	TGI (SR leukemia) [µM]	TGI (EKVX NSCLC) [µM]	GI50 (PC-3 prostate) [µM]	GI50 (HCT-116 colon) [µM]	GI50 (M14 melanoma) [µM]	GI50 (SK-MEL-28 melanoma) [µM]	GI50 (SR leukemia) [µM]	GI50 (EKVX NSCLC) [µM]	GI50 (COLO 205 colon) [µM]	GI50 (SNB-75 CNS) [µM]	GI50 (RXF 393 renal) [µM]
O=C(O)C1CCC(=O)N1C(=O)COc1cc(Cl)c(Cl)cc1Cl (stereo not given)		> 100		> 100		> 100	> 100	> 100		> 100									
[C-]#[O+].[Cl][Sn]([Cl])[Cl].[Cl][Sn]([Cl])[Cl].[Pt].c1cnc2c(c1)ccc1cccnc12		> 100		> 24.6			46.9	61.6		44.4									
O=C1c2ccccc2-c2c1c1ccccc1c(=O)n2CCCNCCNCCCn1c2c(c3ccccc3c1=O)C(=O)c1ccccc1-2			1.84	0.163		1.93	> 100		> 100	2.88	0.0929	< 0.01	0.288	1.09	0.0509	1.23			
CC(=O)O[C@H]1CC[C@@H](OC(C)=O)[C@H]2[C@H](O)[C@H](O)[C@@H]1n1c(=O)n(-c3ccccc3)c(=O)n12	> 100	> 100	> 100	> 100	> 100	> 100	> 100			> 100									
Cc1ccc(NC(=O)CC/C(CC(=O)C(C)(C)C)=N/NC(=O)c2cc3ccccc3cc2O)cc1C	> 100	> 100		> 100		96	> 100			> 100									
COC1=C(OC)C(=O)C(Cc2c(Cl)nc3sccn23)=C(C)C1=O	31.1	29.2	28.5	41.3		24.3	24.4		18.5	20.4									
CCOC(=O)N1CCNCCN(C(=O)OCC)CCNCC1	> 100	> 100	> 100	> 100	> 100	> 100	> 100		> 100	> 100									
O=C1Nc2noc(=O)nc2NO1	> 200	> 200	> 200	> 200	> 200	> 200	> 200	> 200		> 200									
C/C(=N/NC(=S)Nc1ccc(C)cc1)c1ccccn1	11	1.95	13.7	13	13.8	2.37	24.3	17.2		5.12									
Cc1ccc(S(=O)(=O)OCCN(CCOS(=O)(=O)c2ccc(C)cc2)c2ccc(C=O)cc2)cc1	33.2	> 100	> 100	> 100		> 100	81.3			91									
Cn1c(CO)ccc1-c1ccc(-c2ccc(CO)[se]2)[se]1	> 100	9.23	> 100	60		> 73.8	> 100	> 100	> 100	> 100									
Cc1nc(C(=Nc2ccc(Br)cc2)Nn2cnnc2)no1	> 100	> 100	> 100	> 100	> 100	> 100	> 100	> 100		> 100									
COc1ccc(/C(C=O)=C(\Cl)c2ccc(OC)c(OC)c2)cc1	> 100			> 100		> 100		60.7	31.7	> 100									
CC(C)(C)C(=O)c1c(O)c2ccccc2c2ccccc2c1=O		> 100	> 100	> 100	> 100	> 100	> 100	> 100		> 100									
CCC12CCC[C@@]13C=C[C@H](O3)C(C)(C)C2=O (stereo not given in full)	> 100			> 100		> 100		> 100	> 100	> 100									
NCCCNc1nc2ccccc2c2c(=O)c3cc(Cl)ccc3sc12		3.1	3.23					2.79			1.69						1.63	1.4	
CC1=NC(=N)N=C(C)C1N=Nc1ccc2nc(C)[nH]c2c1 (stereo not given)	> 100	> 100	> 100	> 100	> 100	> 100	> 100	> 100		> 100									
O=C(Nc1ccc(-n2cc(-c3ccncc3)c(-c3ccc(O)c(Cl)c3)n2)cc1)Nc1cc(C(F)(F)F)cc(C(F)(F)F)c1	6.9	7.83	11.5	13.7		13.6	16.5	12.6	31.3	15.6	2.92	3.78	3.6	4.48	6.06	3.57	2.62	2.07	2.54
